Laboratory results from patent US8889743B2 (priority 2007, dated 2014).

Experiments:
VSV GP pseudotype = type: cell-based, Vesicular stomatitis virus
[1] = system: Ebola virus GP pseudotype; type: cell-based
[2] = system: Ebola virus pseudotyped VSV particles; type: cell-based
[3] = system: EBOV pseudotyped lentivirus; test: microbe, parasite or virus in culture; type: cell-based, EBOV Zaire strain
[4] = system: retrovirus pseudotypes bearing eMLV (Fr-MLV) env; type: cell-based, ecotropic murine leukemia virus
[5] = system: retrovirus pseudotypes bearing Ebola virus env; type: cell-based
[6] = system: Venezuelan equine encephalitis virus (VEEV) pseudotyped VSV particles; type: cell-based
[7] = system: wild type Ebola virus, Zaire strain; type: cell-based; details: 7 days
[8] = system: live Ebola virus (Zaire strain); type: cell-based; details: 10 days

CCN(CC)CCCC(C)Nc1nc(C)cc(Nc2ccc3nc(C)cc(N)c3c2)n1 (racemic) [Rac1 inhibitor]
entry of VSV GP pseudotype (luciferase activity) (VSV GP pseudotype): unaffected
entry of Ebola virus GP pseudotype (luciferase activity) [1]: inhibits Ebola virus entry

COc1ccc([C@@H]2Sc3ccccc3N(CCN(C)C)C(=O)[C@@H]2OC(C)=O)cc1 [Diltiazem]
infection by virus-like particles bearing Ebola virus env (GFP-expressing cells) [2]: potent and specific blockers

COc1ccc(S(=O)(=O)Nc2ccccc2CN(C)C/C=C/c2ccc(Cl)cc2)cc1 [KN-92]
infection of the VSV core EBOV pseudotyped virus [2]: not
reduction in infection by the pseudotyped virus [3]: ~50%

COc1ccc(S(=O)(=O)N(CCO)c2ccccc2CN(C)C/C=C/c2ccc(Cl)cc2)cc1 [KN-93]
infection by retrovirus pseudotype bearing eMLV env (luciferase activity) [4]: blocking only the Ebola infection
infection of the VSV core EBOV pseudotyped virus [2]: significantly impacted
infection with Ebola virus pseudotyped VSV particles ([2]; 10 μM): specifically blocked infection
infection by retrovirus pseudotype bearing Ebola virus env (luciferase activity) [5]: strong effect

O=c1cc(N2CCOCC2)oc2c(-c3ccccc3)cccc12 [LY294002]
IC50 ([3]; Zaire ebolavirus, HEK293, read-out: IC50 value for infection of EBOV pseudotyped lentivirus): 6.5 ± 1.1 µM

COCCOC(=O)C1=C(C)NC(C)=C(C(=O)OC(C)C)C1c1cccc([N+](=O)[O-])c1 (stereo not shown) [Nimodopine]
Ebola virus-like particle infection/entry, calmodulin inhibitors and L-channel blocking drugs [2]: effective

CC(COc1ccccc1)N(CCCl)Cc1ccccc1 (stereo not shown) [Phenoxybenzamine]
Venezuelan equine encephalitis virus-like particle infection [6]: not
Ebola virus-like particle infection/entry, calmodulin inhibitors and L-channel blocking drugs [2]: inhibited

COc1ccc2cc1Oc1ccc(cc1)C[C@H]1c3cc(c(OC)cc3CCN1C)Oc1c(OC)c(OC)cc3c1[C@H](C2)N(C)CC3 [Tetrandine]
infection by virus-like particles bearing Ebola virus env (GFP-expressing cells) [2]: potent and specific blockers

CN1CCN(CCCN2c3ccccc3Sc3ccc(C(F)(F)F)cc32)CC1 [Trifluorperazine]
Venezuelan equine encephalitis virus-like particle infection [6]: not
Ebola virus-like particle infection/entry, calmodulin inhibitors and L-channel blocking drugs [2]: inhibited

N#CC(=C(/N)Sc1ccccc1N)/C(C#N)=C(\N)Sc1ccccc1N [U0126]
entry of Ebola virus GP pseudotype (luciferase activity) [1]: not

COc1ccc(CCN(C)CCCC(C#N)(c2ccc(OC)c(OC)c2)C(C)C)cc1OC (stereo not shown) [Verapamil]
Ebola virus induced cytopathic effect [7]: reduced or significantly prevented
Ebola virus-like particle infection/entry, calmodulin inhibitors and L-channel blocking drugs [2]: highly effective

NCCCCCCNS(=O)(=O)c1cccc2c(Cl)cccc12 [W7]
Venezuelan equine encephalitis virus-like particle infection [6]: not
Ebola virus-like particle infection/entry, calmodulin inhibitors and L-channel blocking drugs [2]: inhibited

Cl.N [ammonium chloride]
entry of Ebola virus GP pseudotype (luciferase activity), assay validation [1]: sensitive

CO/C1=C\C(C)=C\[C@@H](C)[C@@H](O)[C@@H](C)C/C(C)=C/C=C/[C@H](OC)[C@@H]([C@@H](C)[C@@H](O)[C@H](C)[C@@]2(O)C[C@@H](O)[C@H](C)[C@@H](C(C)C)O2)OC1=O [bafilomycin A1]
entry of Ebola virus GP pseudotype (luciferase activity), assay validation [1]: sensitive

Methoxyverapamil
infection of live Ebola Zaire virus (plaque numbers normalized to DMSO) [8]: inhibition of infection
Ebola virus-like particle infection/entry, calmodulin inhibitors and L-channel blocking drugs [2]: highly effective
